Assay results taken from the CheMixHub viscosity set.

Assay: xn = mol fraction of the nth substance listed

COCCOCCOC + CC1COC(=O)O1
viscosity [mPa·s], 101.33 kPa
Conditions	298.15 K	308.15 K	318.15 K
x1 = 0.021	2.427	2	1.666
x1 = 0.0421	2.372	1.94	1.641
x1 = 0.0759	2.295	1.87	1.565
x1 = 0.0976	2.245	1.835	1.529
x1 = 0.1779	2.081	1.693	1.42
x1 = 0.2468	1.953	1.595	1.332
x1 = 0.3441	1.782	1.458	1.216
x1 = 0.3815	1.719	1.412	1.176
x1 = 0.4148	1.669	1.362	1.145
x1 = 0.4853	1.573	1.291	1.083
x1 = 0.5455	1.488	1.226	1.038
x1 = 0.6708	1.324	1.101	0.938
x1 = 0.7643	1.223	1.017	0.877
x1 = 0.8341	1.148	0.959	0.829
x1 = 0.8725	1.107	0.928	0.804
x1 = 0.9275	1.06	0.889	0.774
x1 = 0.9513	1.035	0.874	0.758
x1 = 0.9796	1.005	0.852	0.739

ClC(Cl)C(Cl)Cl + CCCCCCCO
303.15 K, 101 kPa
Conditions	viscosity [mPa·s]
x2 = 0.1082	1.677
x2 = 0.2331	1.902
x2 = 0.3041	2.042
x2 = 0.3446	2.126
x2 = 0.4479	2.367
x2 = 0.5205	2.568
x2 = 0.6548	3.047
x2 = 0.781	3.616
x2 = 0.8562	4.014
x2 = 0.9304	4.446

ClC(Cl)C(Cl)Cl + CCCCCCC
303.15 K, 101 kPa
Conditions	viscosity [mPa·s]
x1 = 0.1397	0.398
x1 = 0.2476	0.472
x1 = 0.3744	0.564
x1 = 0.4722	0.643
x1 = 0.5731	0.727
x1 = 0.6565	0.8
x1 = 0.7428	0.896
x1 = 0.8309	1.023
x1 = 0.9008	1.165
x1 = 0.9406	1.267

COCCOCCOC + COC(=O)OC
viscosity [mPa·s], 101.33 kPa
Conditions	298.15 K	308.15 K	318.15 K
x1 = 0.0428	0.608	0.536	0.485
x1 = 0.0832	0.626	0.55	0.496
x1 = 0.149	0.66	0.576	0.516
x1 = 0.2102	0.693	0.6	0.536
x1 = 0.2752	0.723	0.626	0.556
x1 = 0.3253	0.752	0.647	0.571
x1 = 0.3937	0.784	0.674	0.592
x1 = 0.4775	0.818	0.701	0.615
x1 = 0.5765	0.855	0.733	0.641
x1 = 0.6623	0.884	0.758	0.661
x1 = 0.7219	0.903	0.774	0.675
x1 = 0.8014	0.93	0.792	0.691
x1 = 0.8649	0.949	0.807	0.702
x1 = 0.8944	0.958	0.813	0.708
x1 = 0.9047	0.961	0.816	0.71
x1 = 0.9232	0.966	0.821	0.713
x1 = 0.9316	0.969	0.823	0.714
x1 = 0.9372	0.97	0.823	0.715
x1 = 0.9528	0.975	0.826	0.718

ClC(Cl)C(Cl)Cl + CCCCCCCC
303.15 K, 101 kPa
Conditions	viscosity [mPa·s]
x1 = 0.1642	0.536
x1 = 0.2409	0.562
x1 = 0.3162	0.61
x1 = 0.3944	0.655
x1 = 0.4996	0.725
x1 = 0.5896	0.794
x1 = 0.6696	0.864
x1 = 0.7658	0.976
x1 = 0.8847	1.167
x1 = 0.9045	1.208
